Series [1] can be described thus: Dissociation constant, pKa of the compound. It is filed as physicochemical.
In series [2] the target is T1, Histamine H3 receptor (Homo sapiens, UniProt Q9Y5N1). The series can be described thus: Inhibition of human histamine H3 expressed in CHO cells by saturation binding experiment. It is filed as cell-based.
For series [3], the target named is Cytochrome P450 2D6 (Homo sapiens, UniProt P10635). The series can be described thus: Inhibition of CYP2D6. The format is ADME.
Series [4] can be described thus: Genotoxicity in mammalian cells assessed as increase in number of micronucleated cells by micronucleus test. The format is cell-based.
Series [5] deals with Cytochrome P450 2C9 (Homo sapiens, UniProt P11712). The series can be described thus: Inhibition of CYP2C9. It is filed as ADME.
Series [6] has as its target Cytochrome P450 2C19 (Homo sapiens, UniProt P33261). The series can be described thus: Inhibition of CYP2C19. The format is ADME.
Series [7] deals with Salmonella enterica subsp. enterica. Briefly: Toxicity in Salmonella Typhimurium assessed as increase in number of revertant colonies by AMES microsuspension assay. The format is organism-based. Conditions: salmonella enterica subsp. enterica serovar typhimurium.
For series [8], the target named is Cytochrome P450 3A4 (Homo sapiens, UniProt P08684). Briefly: Inhibition of CYP3A4. The format is ADME.
Series [9] deals with T2, Cytochrome P450 1A2 (Homo sapiens, UniProt P05177).
T2 sequence (P05177 whole entry): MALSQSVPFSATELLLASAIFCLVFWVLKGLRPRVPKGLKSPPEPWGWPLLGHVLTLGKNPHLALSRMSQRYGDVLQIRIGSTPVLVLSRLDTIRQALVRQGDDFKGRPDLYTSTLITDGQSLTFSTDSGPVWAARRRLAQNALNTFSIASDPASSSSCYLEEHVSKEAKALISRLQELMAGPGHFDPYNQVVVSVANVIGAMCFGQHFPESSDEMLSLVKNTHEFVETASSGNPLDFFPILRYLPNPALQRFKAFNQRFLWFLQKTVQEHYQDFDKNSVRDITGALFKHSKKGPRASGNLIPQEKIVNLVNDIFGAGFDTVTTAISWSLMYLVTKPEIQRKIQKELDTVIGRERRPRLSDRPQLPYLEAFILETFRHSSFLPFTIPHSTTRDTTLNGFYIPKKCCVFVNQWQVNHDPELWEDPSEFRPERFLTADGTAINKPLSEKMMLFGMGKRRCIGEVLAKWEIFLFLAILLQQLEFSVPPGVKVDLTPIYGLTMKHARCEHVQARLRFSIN
The series can be described thus: Inhibition of CYP1A2. The format is ADME.

The target in series [10] is Histamine H2 receptor (Homo sapiens) (UniProt P25021). The series can be described thus: Inhibition of human histamine H2 receptor at 3 uM.
Series [11] in a line: Metabolic stability in rat liver microsomes assessed as clearance per mg of protein. The format is ADME, Microsome.
Series [12] can be described thus: Metabolic stability in human liver microsomes assessed as clearance per mg of protein. The format is ADME, Microsome.
In series [13] the target is T1, Histamine H3 receptor. The series can be described thus: Inverse agonist activity at human histamine H3 receptor expressed in CHO cells by [35S]GTPgammaS binding assay. It is filed as functional, cell-based.
A short description of series [14]: Membrane permeability by PAMPA. The format is ADME. To be noted: read-out: permeability. Background: In PAMPA a lipid-coated filter parts donor from acceptor wells.
Series [15] in a line: Lipophilicity, log D at pH 7.4. It is filed as physicochemical. To be noted: buffer.
Series [16] concerns the target Histamine H4 receptor (Homo sapiens) (UniProt Q9H3N8). Briefly: Inhibition of human histamine H4 receptor at 3 uM.
Series [17] in a line: Solubility in 10 mM DMSO by lyophilizated solubility assay. The format is physicochemical.
Series [18] deals with Histamine H1 receptor (Homo sapiens) (UniProt P35367). The series can be described thus: Inhibition of human histamine H1 receptor at 3 uM.
Series [19] has as its system Phospholipidosis. The series can be described thus: In vitro phospholipidosis in fibroblasts. It is filed as ADME, cell-based. Conditions: fibroblast; call rule not given here.

Bounds are passed on as bounds.

T1 sequence (Q9Y5N1 whole entry): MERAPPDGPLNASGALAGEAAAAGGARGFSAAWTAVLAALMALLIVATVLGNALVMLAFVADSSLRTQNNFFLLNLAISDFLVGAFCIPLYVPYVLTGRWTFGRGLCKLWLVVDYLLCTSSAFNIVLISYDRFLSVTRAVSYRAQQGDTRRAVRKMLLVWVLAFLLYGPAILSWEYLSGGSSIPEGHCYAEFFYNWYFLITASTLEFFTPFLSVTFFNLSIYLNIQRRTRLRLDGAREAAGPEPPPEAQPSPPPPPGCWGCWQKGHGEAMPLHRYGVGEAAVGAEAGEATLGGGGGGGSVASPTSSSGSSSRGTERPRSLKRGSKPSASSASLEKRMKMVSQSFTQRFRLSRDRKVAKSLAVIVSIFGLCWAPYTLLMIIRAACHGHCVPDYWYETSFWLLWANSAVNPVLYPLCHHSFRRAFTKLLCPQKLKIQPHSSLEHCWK
Sequence of Histamine H1 receptor (Homo sapiens) (P35367 whole entry): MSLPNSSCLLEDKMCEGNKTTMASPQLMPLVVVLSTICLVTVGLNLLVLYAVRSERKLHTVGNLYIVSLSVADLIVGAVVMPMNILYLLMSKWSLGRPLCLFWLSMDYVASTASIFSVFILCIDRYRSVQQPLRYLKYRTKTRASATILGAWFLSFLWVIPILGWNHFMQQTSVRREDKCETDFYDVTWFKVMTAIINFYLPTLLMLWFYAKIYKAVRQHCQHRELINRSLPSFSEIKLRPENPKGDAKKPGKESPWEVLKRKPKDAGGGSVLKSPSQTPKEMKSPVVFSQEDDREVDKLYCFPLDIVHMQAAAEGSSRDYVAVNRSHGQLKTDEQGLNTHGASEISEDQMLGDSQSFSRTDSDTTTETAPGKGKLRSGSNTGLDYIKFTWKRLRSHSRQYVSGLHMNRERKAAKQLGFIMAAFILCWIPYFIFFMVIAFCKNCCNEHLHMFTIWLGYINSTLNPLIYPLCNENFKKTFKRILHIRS
Sequence of Histamine H4 receptor (Homo sapiens) (Q9H3N8 whole entry): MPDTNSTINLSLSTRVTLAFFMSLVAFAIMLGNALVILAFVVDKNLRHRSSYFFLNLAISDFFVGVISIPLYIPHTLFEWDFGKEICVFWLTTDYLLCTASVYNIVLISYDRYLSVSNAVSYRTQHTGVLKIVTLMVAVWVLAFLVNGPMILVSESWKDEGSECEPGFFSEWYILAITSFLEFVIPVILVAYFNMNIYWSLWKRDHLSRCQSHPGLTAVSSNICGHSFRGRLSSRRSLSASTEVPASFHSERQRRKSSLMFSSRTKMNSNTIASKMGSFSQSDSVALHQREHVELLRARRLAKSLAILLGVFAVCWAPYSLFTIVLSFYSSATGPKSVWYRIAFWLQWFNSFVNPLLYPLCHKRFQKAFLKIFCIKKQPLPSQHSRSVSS
Sequence of Histamine H2 receptor (Homo sapiens) (P25021 whole entry): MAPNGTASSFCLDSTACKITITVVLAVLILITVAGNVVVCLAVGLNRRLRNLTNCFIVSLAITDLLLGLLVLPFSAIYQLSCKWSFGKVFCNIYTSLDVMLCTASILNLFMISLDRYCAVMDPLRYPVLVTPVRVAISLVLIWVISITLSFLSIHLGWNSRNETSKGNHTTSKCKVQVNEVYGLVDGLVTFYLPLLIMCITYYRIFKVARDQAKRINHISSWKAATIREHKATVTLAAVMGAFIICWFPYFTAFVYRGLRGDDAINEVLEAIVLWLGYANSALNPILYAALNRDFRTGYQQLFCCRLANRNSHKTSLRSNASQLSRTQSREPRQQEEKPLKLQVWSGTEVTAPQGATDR
Sequence of Cytochrome P450 3A4 (P08684 whole entry): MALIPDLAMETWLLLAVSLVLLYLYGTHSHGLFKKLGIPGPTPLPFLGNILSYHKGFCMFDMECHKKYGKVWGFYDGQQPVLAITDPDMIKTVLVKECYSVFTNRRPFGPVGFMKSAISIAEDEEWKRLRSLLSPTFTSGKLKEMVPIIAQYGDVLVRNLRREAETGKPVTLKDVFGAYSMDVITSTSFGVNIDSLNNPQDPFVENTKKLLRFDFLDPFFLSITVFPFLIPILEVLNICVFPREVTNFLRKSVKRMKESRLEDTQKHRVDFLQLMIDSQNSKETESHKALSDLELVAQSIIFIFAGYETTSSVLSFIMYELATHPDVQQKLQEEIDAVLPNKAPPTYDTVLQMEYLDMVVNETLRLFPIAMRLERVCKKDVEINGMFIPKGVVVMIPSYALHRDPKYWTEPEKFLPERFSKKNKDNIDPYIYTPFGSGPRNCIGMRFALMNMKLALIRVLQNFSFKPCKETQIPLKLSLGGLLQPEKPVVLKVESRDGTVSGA
Sequence of Cytochrome P450 2C19 (P33261 whole entry): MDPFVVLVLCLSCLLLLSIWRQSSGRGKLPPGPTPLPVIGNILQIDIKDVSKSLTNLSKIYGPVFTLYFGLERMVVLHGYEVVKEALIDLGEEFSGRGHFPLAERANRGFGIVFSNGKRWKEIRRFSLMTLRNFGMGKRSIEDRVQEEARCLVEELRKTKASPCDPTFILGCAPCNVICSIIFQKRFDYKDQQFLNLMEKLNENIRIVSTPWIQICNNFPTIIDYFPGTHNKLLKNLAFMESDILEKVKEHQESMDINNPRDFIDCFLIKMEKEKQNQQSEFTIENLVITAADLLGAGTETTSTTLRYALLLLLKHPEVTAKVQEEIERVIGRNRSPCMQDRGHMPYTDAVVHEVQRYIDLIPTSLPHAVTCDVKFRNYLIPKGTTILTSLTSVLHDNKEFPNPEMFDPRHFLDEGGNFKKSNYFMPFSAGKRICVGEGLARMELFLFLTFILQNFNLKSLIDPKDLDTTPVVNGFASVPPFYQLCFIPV
Sequence of Cytochrome P450 2C9 (P11712 whole entry): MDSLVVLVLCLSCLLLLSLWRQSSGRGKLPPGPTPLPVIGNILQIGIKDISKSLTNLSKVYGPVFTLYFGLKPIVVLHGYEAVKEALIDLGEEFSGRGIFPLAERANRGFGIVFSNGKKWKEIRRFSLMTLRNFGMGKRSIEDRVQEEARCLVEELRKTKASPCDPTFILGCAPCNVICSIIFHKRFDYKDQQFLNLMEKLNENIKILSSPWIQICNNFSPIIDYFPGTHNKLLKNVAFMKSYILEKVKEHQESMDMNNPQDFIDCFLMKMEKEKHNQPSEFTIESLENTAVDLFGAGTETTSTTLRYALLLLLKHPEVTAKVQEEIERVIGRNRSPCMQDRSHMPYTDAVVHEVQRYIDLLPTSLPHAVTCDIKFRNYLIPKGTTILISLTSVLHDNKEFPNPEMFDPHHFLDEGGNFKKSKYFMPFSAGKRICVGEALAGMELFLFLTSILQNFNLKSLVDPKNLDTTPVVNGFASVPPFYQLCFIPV
Sequence of Cytochrome P450 2D6 (P10635 whole entry): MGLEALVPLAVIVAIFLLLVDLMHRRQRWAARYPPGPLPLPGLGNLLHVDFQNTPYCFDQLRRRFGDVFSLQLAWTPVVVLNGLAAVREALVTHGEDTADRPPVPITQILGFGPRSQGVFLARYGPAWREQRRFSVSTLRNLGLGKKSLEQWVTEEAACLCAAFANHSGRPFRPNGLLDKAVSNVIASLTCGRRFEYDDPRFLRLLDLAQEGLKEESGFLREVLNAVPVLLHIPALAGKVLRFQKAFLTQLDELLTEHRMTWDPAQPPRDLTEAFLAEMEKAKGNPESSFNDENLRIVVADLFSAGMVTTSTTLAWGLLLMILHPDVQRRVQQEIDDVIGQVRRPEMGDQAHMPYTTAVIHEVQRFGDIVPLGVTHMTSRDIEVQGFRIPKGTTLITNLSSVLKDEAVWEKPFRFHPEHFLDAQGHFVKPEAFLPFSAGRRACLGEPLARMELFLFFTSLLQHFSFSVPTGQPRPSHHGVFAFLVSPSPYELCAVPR

By pKa is commonly meant the negative logarithm of the acid dissociation constant. For orientation: Ki means a dissociation constant, usually derived from enzyme kinetics or from competition with a known ligand. Read a low Ki as higher affinity. In the case of `O=C(c1ccc2cc(OCCCN3CCCCC3)ccc2c1)N1CCC(CO)CC1`, the pKa in series [1] stood at 9.6. The same molecule gave a Ki in series [2] of 103 nM.

In turn, `CC(C)N1CCC(Oc2ccc3nc(C(=O)N4CCC[C@H]4C#N)ccc3c2)CC1` registered a pKa in series [1] of 9.5. Further, the Ki in [2] was 87 nM.

For orientation: IC50 means the concentration needed to halve the response being measured. A word on the inhibition: it is the drop in the measured response relative to a control, in per cent. Usually microsomal CLint stands for a measure of how fast metabolising enzymes remove a compound, apart from limits set by blood flow. The EC50 is the concentration at which the effect is half-maximal. A low value points to greater potency. Broadly, the logD is lipophilicity at a set pH, counting ionised and neutral species. Low readings indicate a more hydrophilic compound, high ones a more lipophilic compound. The term solubility denotes the concentration that dissolves in the medium under given conditions. A higher solubility goes with a readily soluble substance. With `CC1CCN(C(=O)c2ccc3cc(OCCCN4CCCCC4)ccc3c2)CC1`, the IC50 in [3], in series [5], in [6], in series [8] and in series [9] was more than 12000 nM throughout. Moreover, the Activity entry in series [4] and in series [7] was “Non-toxic” in each case. For the same molecule, the inhibition in [10] is -0.3%; in [16], 0%. Further, the microsomal CLint in [11] was found to be 32 µL/min/mg; in series [12], 33 µL/min/mg. In series [13], this molecule returned a 50% effective concentration (EC50) of 200 nM. This molecule yielded a pKa in [1] of 9.86. The Papp in [14] stood at 2.6 ×10⁻⁶ cm/s. In series [15], this molecule yielded a logD of 2.47. In [2], this molecule gave a Ki of 7 nM. For the same molecule, in series [17], the solubility was more than 543 µg/mL.

Molecule `CC(C)N1CCC(Oc2ccc3cc(C(=O)N4CCCC4C)ccc3c2)CC1` (stereo not given) gave a pKa in series [1] of 9.71. The molecule further displayed an inhibition constant Ki in [2] of 15 nM.

Turning to `CC(C)CN1CCC(Oc2ccc3cc(C(=O)N4CCC(C)CC4)ccc3c2)CC1`, the inhibition is 4.1% in [10], -4.5% in [18] and 0% in series [16]. This molecule also yielded a pKa in series [1] of 9.8. For the same molecule, affinity in series [2] was put at a Ki of 36 nM.

`COC1CCN(C(=O)c2ccc3cc(OC4CCN(C(C)C)CC4)ccc3n2)CC1` yielded a pKa in series [1] of 9.5. Affinity in [2] was put at a Ki of 125 nM.

The molecule `CC1CCN(C(=O)c2ccc3cc(OCCC4CCCN4C)ccc3c2)CC1` (stereo not given) returned a pKa in [1] of 9.9.

In series [1], `CC(C)N1CCC(Oc2ccc3nc(C(=O)N4CCC4)ccc3c2)CC1` returned a pKa of 9.5. For the same molecule, the Ki in series [2] stood at 62 nM.

`O=C(c1ccc2cc(OCCCN3CCCCC3)ccc2n1)N1CCC1`: the pKa in [1] stood at 9.4. Further, in series [2], the Ki came out at 119 nM.

In series [1], `COC1CCN(C(=O)c2ccc3cc(OCCCN4CCCCC4)ccc3c2)CC1` gave a pKa of 9.57. The molecule also displayed an inhibition constant (Ki) in series [2] of 30 nM.

`CC1CCN(C(=O)c2ccc3cc(OCCCN4CCOCC4)ccc3c2)CC1` registered a pKa in series [1] of 7.8. Affinity in series [2] was put at a Ki of 2000 nM.

For `CC(C)N1CCC(Oc2ccc3cc(C(=O)N4CCC(CO)CC4)ccc3c2)CC1`, the pKa in [1] amounted to 9.6. Moreover, affinity in series [2] was put at a Ki of 154 nM.

For `CC1CCN(C(=O)c2ccc3cc(OC4CCN(C(C)C)CC4)ccc3c2)CC1`, the inhibition in series [10] was -8%; in series [18], 0.9%; in series [16] it was 0%. This molecule also yielded a pKa in [1] of 9.6. For the same molecule, the Ki in series [2] came out at 34 nM.

Consider `CC1CCN(C(=O)c2ccc3cc(OCCCN4CCCCC4)ccc3n2)CC1`, for which the pKa in series [1] stood at 9.7. Also, the inhibition constant Ki in [2] was determined as 300 nM.

As for `CC(C)N1CCC(Oc2ccc3cc(C(=O)N4CCOCC4)ccc3c2)CC1`, the IC50 in series [3], in series [5], in [6], in series [8] and in series [9] was more than 41000 nM each time. Also, the Activity result in series [4] and in [7] was “Non-toxic” throughout. Also, the inhibition was -9.9% in series [10], 1.6% in [18] and 0% in [16]. The results for the intrinsic metabolic clearance (microsomal CLint) in series [11] and in series [12] were 3 µL/min/mg and 23 µL/min/mg, respectively. This molecule also registered an EC50 in series [13] of 17 nM. The pKa in [1] worked out at 9.3. Further, the Papp in series [14] came out at 2.5 ×10⁻⁶ cm/s. Moreover, in [15], the pH-dependent lipophilicity (logD) worked out at 0.6. For the same molecule, in [2], the Ki stood at 40 nM. Further, in [19], the Phospholipidosis result is on record as “Not Active”. Further, the solubility in series [17] was more than 558 µg/mL.

Take `COC1CCN(C(=O)c2ccc3cc(OC4CCN(C(C)C)CC4)ccc3c2)CC1`: the pKa in [1] was 9.4. Further, in series [2], the inhibition constant (Ki) turned out to be 62 nM.

Regarding `CC1CCN(C(=O)c2ccc3cc(OC4CCN(C(C)C)C4)ccc3c2)CC1` (stereo not given), the pKa in series [1] was found to be 9.4. This molecule also gave an inhibition constant (Ki) in series [2] of 234 nM.

`CC(C)N1[C@@H]2CC(Oc3ccc4nc(C(=O)N5CCOCC5)ccc4c3)CC[C@H]1C2` (stereo not given in full) gave a pKa in series [1] of 8.97. The molecule further came in with a Ki in [2] of 30 nM.

In turn, `CC(C)N1CCC(Oc2ccc3nc(C(=O)N4CCOCC4)ccc3c2)CC1` showed a pKa in [1] of 9.5. The molecule also came in with a Ki in [2] of 238 nM.

Source of the values: ChEMBL document CHEMBL1153640, “Selective naphthalene H(3) receptor inverse agonists with reduced potential to induce phospholipidosis and their quinoline analogs” (Bioorg Med Chem Lett, 2009).
